The source of these data is US20250073339A1, “CONJUGATES COMPRISING CLEAVABLE LINKERS” (priority 2023, published 2025).

Holding throughout (assay type): biochemical
For experiment [1], the target named is T1, Human neutrophil elastase (Homo sapiens, UniProt P08246).
T1 sequence (P08246 30-267): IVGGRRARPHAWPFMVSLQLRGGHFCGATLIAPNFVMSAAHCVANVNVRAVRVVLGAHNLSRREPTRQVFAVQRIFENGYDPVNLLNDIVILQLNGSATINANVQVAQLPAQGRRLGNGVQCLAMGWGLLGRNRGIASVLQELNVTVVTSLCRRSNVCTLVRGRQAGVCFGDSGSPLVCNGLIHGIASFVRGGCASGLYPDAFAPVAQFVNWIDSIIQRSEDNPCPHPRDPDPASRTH
The experiment can be described thus: Linker-Payload enzymatic cleavage with human neutrophil elastase. As to conditions: 0.67 μM enzyme, 67 μM Linker-Payload, pH 7.4, 37° C., 24 hours. As for the experimental part:
0.67 μM Human neutrophil elastase was added to 67 μM Linker-Payload (1:100) in Tris Buffered Saline, pH 7.4. The mixture was incubated at 37° C. for a duration of 24 hours with intermediate timepoints collected and diluted 1:1 with buffer containing acetonitrile, water and formic acid. The sample was measured by reverse-phase HPLC with data quantified against a standard curve.

A further experiment deals with Cathepsin B (Homo sapiens, UniProt P07858). The experiment can be described thus: Linker-Payload enzymatic cleavage with cathepsin B. The note with it: FIG. 1B; 0.14 μM enzyme, 70 μM Linker-Payload, pH 5.0, 37° C., 24 hours. As for the experimental part:
0.14 μM Cathepsin B was added to 70 μM Linker-Payload (1:500) in 50 mM sodium acetate, 1 mM DTT, pH 5.0. The mixture was incubated at 37° C. for a duration of 24 hours with intermediate timepoints collected and diluted 1:1 with buffer containing acetonitrile, water and formic acid. The sample was measured by reverse-phase HPLC with data quantified against a standard curve.

Another experiment has as its target T2, β-glucuronidase (Homo sapiens, UniProt P08236).
T2 sequence (P08236 23-651): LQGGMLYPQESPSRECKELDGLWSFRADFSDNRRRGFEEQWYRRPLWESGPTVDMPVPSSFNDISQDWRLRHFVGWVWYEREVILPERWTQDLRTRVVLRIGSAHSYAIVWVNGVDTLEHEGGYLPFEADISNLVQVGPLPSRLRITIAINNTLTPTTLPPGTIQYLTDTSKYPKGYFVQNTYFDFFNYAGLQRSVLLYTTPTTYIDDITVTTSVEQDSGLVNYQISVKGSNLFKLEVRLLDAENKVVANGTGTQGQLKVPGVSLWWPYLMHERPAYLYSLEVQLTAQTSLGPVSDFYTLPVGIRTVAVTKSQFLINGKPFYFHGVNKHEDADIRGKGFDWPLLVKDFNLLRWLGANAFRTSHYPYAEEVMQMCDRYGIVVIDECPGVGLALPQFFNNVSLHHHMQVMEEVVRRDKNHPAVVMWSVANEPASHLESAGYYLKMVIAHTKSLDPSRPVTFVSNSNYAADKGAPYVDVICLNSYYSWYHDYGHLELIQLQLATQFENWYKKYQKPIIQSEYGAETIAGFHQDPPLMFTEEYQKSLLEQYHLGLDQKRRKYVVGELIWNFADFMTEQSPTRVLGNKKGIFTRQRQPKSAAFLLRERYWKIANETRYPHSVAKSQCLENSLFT
The experiment can be described thus: Linker-Payload enzymatic cleavage with β-glucuronidase. The note with it: 4 nM enzyme, 40 μM Linker-Payload, pH 5.0, 37° C., 24 hours; for cleavage in the presence of β-glucuronidase: FIG. 1A. As for the experimental part: 4 nM β-glucuronidase was added to 40 μM Linker-Payload (1:10,000) in 50 mM sodium acetate, pH 5.0. The mixture was incubated at 37° C. for a duration of 24 hours with intermediate timepoints collected and diluted 1:1 with buffer containing acetonitrile, water and formic acid. The sample was measured by reverse-phase HPLC with data quantified against a standard curve.

Numbered stars: 1 amine (or outer) side, 2 acyl side, 3 side chain; on linkers, the order of the positions; unused ones are H or OH. Square brackets hold non-standard residues; d marks the D form. Peptide text beside a SMILES is read from it. * marks the point of attachment. X1 = O=C(O)[C@H]1O[C@@H](Oc2ccc(COC(=O)[*:2])cc2N[*:1])[C@H](O)[C@@H](O)[C@@H]1O; CH3O(CH2CH2O)11CH2CH2CO = COCCOCCOCCOCCOCCOCCOCCOCCOCCOCCOCCOCCC(=O)*; Dolaproine = CO[C@@H]([C@@H]1CCCN1)[C@@H](C)C(=O)O; Hexanoyl(6-maleimido) = O=C1C=CC(=O)N1CCCCCC(=O)*; Propanoyl(3-maleimido) = O=C1C=CC(=O)N1CCC(=O)*; Dil = CC[C@H](C)[C@H](NC)[C@@H](CC(=O)O)OC; PABC = O=C(OCc1ccc(N[*:1])cc1)[*:2]; X2 = C[C@@H](N*)[C@@H](O)c1ccccc1; Cit = NC(=O)NCCC[C@H](N)C(=O)O; NMeV = CN[C@H](C(=O)O)C(C)C; βAla = NCCC(=O)O

Take `CC[C@H](C)[C@@H]([C@@H](CC(=O)N1CCC[C@H]1[C@H](OC)[C@@H](C)C(=O)N[C@H](C)[C@@H](O)c1ccccc1)OC)N(C)C(=O)[C@@H](NC(=O)[C@H](C(C)C)N(C)C(=O)OCc1ccc(NC(=O)[C@H](CCCNC(N)=O)NC(=O)[C@@H](NC(=O)CCCCCN2C(=O)C=CC2=O)C(C)C)cc1)C(C)C` [LP1, maleimidocaproyl-valine-citrulline-p-aminobenzoyloxycarbonyl-MMAE, reference compound] ({Hexanoyl(6-maleimido)}-V[Cit][PABC][NMeV]V[Dil][Dolaproine]-X2): the “cleavage in the presence of human neutrophil elastase” value in experiment [1] (FIG. 1C) is “underwent more rapid cleavage”.

Regarding `CC[C@H](C)[C@@H]([C@@H](CC(=O)N1CCC[C@H]1[C@H](OC)[C@@H](C)C(=O)N[C@H](C)[C@@H](O)c1ccccc1)OC)N(C)C(=O)[C@@H](NC(=O)[C@H](C(C)C)N(C)C(=O)OCc1ccc(O[C@@H]2O[C@H](C(=O)O)[C@@H](O)[C@H](O)[C@H]2O)c(CNC(=O)CCNC(=O)COC2(CNC(=O)CCN3C(=O)C=CC3=O)CN(C(=O)CCOCCOCCOCCOCCOCCOCCOCCOCCOCCOCCOCCOC)C2)c1)C(C)C` [LP2], the “cleavage in the presence of cathepsin B” value at Cathepsin B was “neither LP2 nor LP3 underwent rapid cleavage”. The “cleavage in the presence of β-glucuronidase” value on β-glucuronidase is recorded as “underwent significant cleavage”. The “cleavage in the presence of β-glucuronidase relative to references” value on β-glucuronidase (FIG. 1E) is “underwent slower cleavage than both LP7 (Reference) and LP8 (Reference)”. Further, the “cleavage in the presence of human neutrophil elastase” value in experiment [1] (FIG. 1C) and in experiment [1] (FIG. 1D) was “did not undergo rapid cleavage” each time.

In the case of `CC[C@H](C)[C@@H]([C@@H](CC(=O)N1CCC[C@H]1[C@H](OC)[C@@H](C)C(=O)N[C@H](C)[C@@H](O)c1ccccc1)OC)N(C)C(=O)[C@@H](NC(=O)[C@H](C(C)C)N(C)C(=O)OCc1ccc(O[C@@H]2O[C@H](C(=O)O)[C@@H](O)[C@H](O)[C@H]2O)c(CNC(=O)COC2(CNC(=O)CCN3C(=O)C=CC3=O)CN(C(=O)CCOCCOCCOCCOCCOCCOCCOCCOCCOCCOCCOCCOC)C2)c1)C(C)C` [LP3], the “cleavage in the presence of cathepsin B” value at Cathepsin B is listed as “neither LP2 nor LP3 underwent rapid cleavage”. In addition, the “cleavage in the presence of β-glucuronidase” value on β-glucuronidase is listed as “underwent significant cleavage”. Besides, the “cleavage in the presence of human neutrophil elastase” value in experiment [1] (FIG. 1C) is recorded as “did not undergo rapid cleavage”.

For `CC[C@H](C)[C@@H]([C@@H](CC(=O)N1CCC[C@H]1[C@H](OC)[C@@H](C)C(=O)N[C@H](C)[C@@H](O)c1ccccc1)OC)N(C)C(=O)[C@@H](NC(=O)[C@H](C(C)C)N(C)C(=O)OCc1ccc(O[C@@H]2O[C@H](C(=O)O)[C@@H](O)[C@H](O)[C@H]2O)c(CNC(=O)CCNC(=O)[C@H](CCCCNC(=O)CCOCCOCCOCCOCCOCCOCCOCCOCCOCCOCCOCCOC)NC(=O)CCN2C(=O)C=CC2=O)c1)C(C)C` [LP7, reference compound], the “cleavage in the presence of human neutrophil elastase” value in experiment [1] (FIG. 1D) is “did not undergo rapid cleavage”.

On to `CC[C@H](C)[C@@H]([C@@H](CC(=O)N1CCC[C@H]1[C@H](OC)[C@@H](C)C(=O)N[C@H](C)[C@@H](O)c1ccccc1)OC)N(C)C(=O)[C@@H](NC(=O)[C@H](C(C)C)N(C)C(=O)OCc1ccc(O[C@@H]2O[C@H](C(=O)O)[C@@H](O)[C@H](O)[C@H]2O)c(NC(=O)CCNC(=O)[C@H](CCCCNC(=O)CCOCCOCCOCCOCCOCCOCCOCCOCCOCCOCCOCCOC)NC(=O)CCN2C(=O)C=CC2=O)c1)C(C)C` [LP8, reference compound] ({Propanoyl(3-maleimido)}-K(CH3O(CH2CH2O)11CH2CH2CO)[βAla][X1][NMeV]V[Dil][Dolaproine]-X2), for which, in experiment [1] (FIG. 1D), the “cleavage in the presence of human neutrophil elastase” value is reported as “did not undergo rapid cleavage”.
